Results published in US9701670B2, “Pyrazolyl-ureas as kinase inhibitors” (RESPIVERT LIMITED, priority 2013, dated 2017).

How the values were obtained:
[1] = molecular target: p38 MAPKα isoform (MAPK14) (Homo sapiens (Human), UniProt Q16539); assay: p38 MAPKα enzyme inhibition (FRET, Z-LYTE), Method 1; format: biochemical; settings: Method 1 (Table 4a1)
[2] = test system: Differentiated U937 cells; assay: (l) Cell viability: MTT assay; format: cell-based, human; settings: 1 μg/mL
Procedure, shortened: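 MTT read-out (1 h, absorbance 550 nm) on d-U937 cells after pre-incubation with 1 or 10 μg/mL compound under two regimes: 4 h, 5% FCS, or 24 h, 10% FCS RPMI1640. Values are percent loss of viability relative to vehicle (0.5% DMSO), so increases are reported as negative.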

Chain of p38 MAPKα isoform (MAPK14) (Q16539 whole entry, canonical isoform): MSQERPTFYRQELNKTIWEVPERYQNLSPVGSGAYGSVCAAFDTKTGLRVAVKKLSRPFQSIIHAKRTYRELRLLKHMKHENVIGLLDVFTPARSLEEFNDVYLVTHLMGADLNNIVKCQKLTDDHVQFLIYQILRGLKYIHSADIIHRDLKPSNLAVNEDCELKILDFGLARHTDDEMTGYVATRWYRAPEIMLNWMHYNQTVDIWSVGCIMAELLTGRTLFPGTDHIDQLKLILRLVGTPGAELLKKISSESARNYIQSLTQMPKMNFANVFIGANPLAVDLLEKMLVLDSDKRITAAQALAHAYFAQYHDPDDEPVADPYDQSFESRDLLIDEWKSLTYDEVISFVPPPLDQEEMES

Compound	IC50 [1] [nM]	Cell viability at time point in d-U937 cells 4 h [2]	Cell viability at time point in d-U937 cells 24 h [2]
COc1ccc(-n2nc(C(C)C)cc2NC(=O)Nc2ccc(Oc3ccnc(Nc4cc(C(=O)NCCO)ccc4OC)n3)c3ccccc23)cc1 [Example 34, N-(2-hydroxyethyl)-3-((4-((4-(3-(3-isopropyl-1-(4-methoxyphenyl)-1H-pyrazol-5-yl)ureido)naphthalen-1-yl)oxy)pyrimidin-2-yl)amino)-4-methoxybenzamide]	< 1	+ve (−ve and +ve indicate that the value is below and above respectively, the no significant effect threshold, defined as 30% inhibition at 1 μg/mL at the time point indicated.)	−ve (−ve and +ve indicate that the value is below and above respectively, the no significant effect threshold, defined as 30% inhibition at 1 μg/mL at the time point indicated.)
COc1cc(C(=O)NCCN(C)C)ccc1Nc1nccc(Oc2ccc(NC(=O)Nc3cc(C(C)C)nn3-c3ccc(C)cc3)c3ccccc23)n1 [Example 35, N-(2-(dimethylamino)ethyl)-4-((4-((4-(3-(3-isopropyl-1-(p-tolyl)-1H-pyrazol-5-yl)ureido)naphthalen-1-yl)oxy)pyrimidin-2-yl)amino)-3-methoxybenzamide]	< 1	−ve (−ve and +ve indicate that the value is below and above respectively, the no significant effect threshold, defined as 30% inhibition at 1 μg/mL at the time point indicated.)	−ve (−ve and +ve indicate that the value is below and above respectively, the no significant effect threshold, defined as 30% inhibition at 1 μg/mL at the time point indicated.)
COc1cc(C(=O)NCCN2CCOCC2)ccc1Nc1nccc(Oc2ccc(NC(=O)Nc3cc(C(C)(C)C)nn3-c3ccc(C)cc3)c3ccccc23)n1 [Example 37, 4-((4-((4-(3-(3-(tert-butyl)-1-(p-tolyl)-1H-pyrazol-5-yl)ureido)naphthalen-1-yl)oxy)pyrimidin-2-yl)amino)-3-methoxy-N-(2-morpholinoethyl)benzamide]	44	−ve (−ve and +ve indicate that the value is below and above respectively, the no significant effect threshold, defined as 30% inhibition at 1 μg/mL at the time point indicated.)	−ve (−ve and +ve indicate that the value is below and above respectively, the no significant effect threshold, defined as 30% inhibition at 1 μg/mL at the time point indicated.)
COc1ccc(-n2nc(C(C)C)cc2NC(=O)Nc2ccc(Oc3ccnc(Nc4ccc(C(=O)NCCN5CCOCC5)cc4OC)n3)c3ccccc23)cc1 [Example 38]	12	−ve (−ve and +ve indicate that the value is below and above respectively, the no significant effect threshold, defined as 30% inhibition at 1 μg/mL at the time point indicated.)	−ve (−ve and +ve indicate that the value is below and above respectively, the no significant effect threshold, defined as 30% inhibition at 1 μg/mL at the time point indicated.)
COc1cc(C(=O)NCCO)ccc1Nc1nccc(Oc2ccc(NC(=O)Nc3cc(C(C)C)nn3-c3ccc(C)cc3)c3ccccc23)n1 [Example 39, N-(2-hydroxyethyl)-4-((4-((4-(3-(3-isopropyl-1-(p-tolyl)-1H-pyrazol-5-yl)ureido)naphthalen-1-yl)oxy)pyrimidin-2-yl)amino)-3-methoxybenzamide]	7	−ve (−ve and +ve indicate that the value is below and above respectively, the no significant effect threshold, defined as 30% inhibition at 1 μg/mL at the time point indicated.)	−ve (−ve and +ve indicate that the value is below and above respectively, the no significant effect threshold, defined as 30% inhibition at 1 μg/mL at the time point indicated.)
Cc1ccc(-n2nc(C(C)(C)C)cc2NC(=O)Nc2ccc(Oc3ccnc(Nc4cc(C)cc(C(N)=O)c4)n3)c3ccccc23)cc1 [Example 40, 3-((4-((4-(3-(3-(tert-butyl)-1-(p-tolyl)-1H-pyrazol-5-yl)ureido)naphthalen-1-yl)oxy)pyrimidin-2-yl)amino)-5-methylbenzamide]	52	−ve (−ve and +ve indicate that the value is below and above respectively, the no significant effect threshold, defined as 30% inhibition at 1 μg/mL at the time point indicated.)	−ve (−ve and +ve indicate that the value is below and above respectively, the no significant effect threshold, defined as 30% inhibition at 1 μg/mL at the time point indicated.)
COc1ccc(-n2nc(C(C)(C)C)cc2NC(=O)Nc2ccc(Oc3ccnc(Nc4cc(OC)cc(C(N)=O)c4)n3)c3ccccc23)cc1 [Example 41, 3-((4-((4-(3-(3-(tert-butyl)-1-(4-methoxyphenyl)-1H-pyrazol-5-yl)ureido)naphthalen-1-yl)oxy)pyrimidin-2-yl)amino)-5-methoxybenzamide]	50	−ve (−ve and +ve indicate that the value is below and above respectively, the no significant effect threshold, defined as 30% inhibition at 1 μg/mL at the time point indicated.)	−ve (−ve and +ve indicate that the value is below and above respectively, the no significant effect threshold, defined as 30% inhibition at 1 μg/mL at the time point indicated.)
COc1ccc(-n2nc(C(C)(C)C)cc2NC(=O)Nc2ccc(Oc3ccnc(Nc4cc(Br)cc(C(N)=O)c4)n3)c3ccccc23)cc1 [Example 42, 3-bromo-5-((4-((4-(3-(3-(tert-butyl)-1-(4-methoxyphenyl)-1H-pyrazol-5-yl)ureido)naphthalen-1-yl)oxy)pyrimidin-2-yl)amino)benzamide]	167	−ve (−ve and +ve indicate that the value is below and above respectively, the no significant effect threshold, defined as 30% inhibition at 1 μg/mL at the time point indicated.)	−ve (−ve and +ve indicate that the value is below and above respectively, the no significant effect threshold, defined as 30% inhibition at 1 μg/mL at the time point indicated.)
COc1cc(Nc2nccc(Oc3ccc(NC(=O)Nc4cc(C(C)(C)C)nn4-c4ccc(C)cc4)c4ccccc34)n2)cc(C(=O)NCCN(C)C)c1 [Example 43, 3-((4-((4-(3-(3-(tert-butyl)-1-(p-tolyl)-1H-pyrazol-5-yl)ureido)naphthalen-1-yl)oxy)pyrimidin-2-yl)amino)-N-(2-(dimethylamino)ethyl)-5-methoxybenzamide]	4	−ve (−ve and +ve indicate that the value is below and above respectively, the no significant effect threshold, defined as 30% inhibition at 1 μg/mL at the time point indicated.)	−ve (−ve and +ve indicate that the value is below and above respectively, the no significant effect threshold, defined as 30% inhibition at 1 μg/mL at the time point indicated.)
